Measurements: patent publication US20140350081A1, “INSECT G-COUPLED RECEPTORS USEFUL AS TARGETS FOR INSECTICIDES AND COMPOUNDS AND REAGENTS IDENTIFIED USING THE SAME” (priority 2011, published 2014)
Structures can show the parent of a compound that is named as a salt. Where two headings read alike, the source gives them in different places.

Columns and labels:
[1] = target: T1, AaDOP2 (Aedes aegypti, UniProt H6D5H2); test: AaDOP2 agonist screen against the LOPAC1280 library; type: cell-based
[2] = target: T1, AaDOP2; test: LOPAC1280 antagonist screen in HEK-CRELuc-Aadop2 cells; type: cell-based
[3] = target: T1, AaDOP2; test: HTRF cAMP accumulation concentration response assay (Cisbio Dynamic 2); type: cell-based
[4] = target: Isdop2 (Ixodes scapularis, UniProt A0ACM8DGL0); test: cell-based; conditions: for inhibition at 10 µM: read-out: % Inhibition (of response to dopamine), Isdop2 screen
[5] = tested on: Ae. aegypti L3 larvae; test: whole plant or invertebrate; conditions: Aedes aegypti
[6] = 10 μM compound, percent of response to 1 μM dihydrexidine
[7] = 10 μM compound, 300 nM dopamine, quadruplicate
[8] = AaDOP2 expressing cells in the presence of dopamine, No Inhibition = <10% inhibition at 3 μM test compound, read-out: IC50 ± S.E.M. (nM), HTRF cAMP assay
[9] = 24 h, read-out: Toxicity to Aedes aegypti larvae (mortality) 24 hours
[10] = 48 h, read-out: Toxicity to Aedes aegypti larvae (mortality) 48 hours
[11] = 72 h, read-out: Toxicity to Aedes aegypti larvae (mortality) 72 hours

T1 sequence (H6D5H2 entry or part of it): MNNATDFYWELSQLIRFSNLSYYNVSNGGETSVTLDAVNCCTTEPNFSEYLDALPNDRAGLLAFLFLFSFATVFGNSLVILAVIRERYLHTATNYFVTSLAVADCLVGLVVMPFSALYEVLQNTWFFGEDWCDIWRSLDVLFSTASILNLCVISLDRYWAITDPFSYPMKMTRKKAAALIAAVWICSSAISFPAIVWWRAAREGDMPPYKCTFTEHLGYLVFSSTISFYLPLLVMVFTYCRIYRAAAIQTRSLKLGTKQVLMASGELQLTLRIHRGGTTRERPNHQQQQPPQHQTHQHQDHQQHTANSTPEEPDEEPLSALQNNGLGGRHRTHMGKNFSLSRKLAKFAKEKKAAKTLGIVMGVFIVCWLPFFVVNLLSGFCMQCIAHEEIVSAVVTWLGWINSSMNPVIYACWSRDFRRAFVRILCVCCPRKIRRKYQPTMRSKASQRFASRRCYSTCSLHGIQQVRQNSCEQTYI
Chain of Isdop2 (A0ACM8DGL0 entry or part of it): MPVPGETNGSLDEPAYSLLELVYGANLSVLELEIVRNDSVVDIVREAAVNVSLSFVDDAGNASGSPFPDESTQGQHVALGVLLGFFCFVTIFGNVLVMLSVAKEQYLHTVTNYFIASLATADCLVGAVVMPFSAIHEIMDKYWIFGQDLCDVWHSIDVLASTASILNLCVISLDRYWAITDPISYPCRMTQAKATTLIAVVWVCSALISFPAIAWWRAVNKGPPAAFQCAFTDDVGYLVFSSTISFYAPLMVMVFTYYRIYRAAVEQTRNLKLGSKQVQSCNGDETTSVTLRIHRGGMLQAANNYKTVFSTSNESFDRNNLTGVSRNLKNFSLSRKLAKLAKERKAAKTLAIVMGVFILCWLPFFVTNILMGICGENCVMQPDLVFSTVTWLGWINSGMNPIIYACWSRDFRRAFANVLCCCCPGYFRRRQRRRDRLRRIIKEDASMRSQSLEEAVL

Structure (SMILES): CNCCc1ccc(O)c(O)c1 [N-Methyldopamine]
- % of DHX [1, 6]: 107%

Structure (SMILES): CN1CCC(=C2c3ccccc3CC(=O)c3sccc32)CC1 [Ketotifen, 4-(1-methylpiperidin-4-ylidene)-4,9-dihydro-10H-benzo[4,5]cyclohepta[1,2-b]thiophen-10-one]
- % of the SCH23390 effect [2, 7]: 96%
- % inhibition of DA activity (Aedes cell-based assay screen) ([2]; LOPAC1280 screen hits): 96%
- IC50 [3, 8]: 750 ± 180 nM

Structure (SMILES): CN(C)CCCN1c2ccccc2CCc2ccccc21 [Imipramine, 3-(10,11-dihydro-5H-dibenzo[b,f]azepin-5-yl)-N,N-dimethylpropan-1-amine]
- % of the SCH23390 effect [2, 7]: 96%
- % inhibition of DA activity (Aedes cell-based assay screen) ([2]; LOPAC1280 screen hits): 96%
- IC50 [3, 8]: 360 ± 30 nM
- inhibition at 10 µM [4]: 70%
- mortality at 400 µM [5, 9]: 53%
- mortality at 400 µM [5, 10]: 63%
- mortality at 400 µM [5, 11]: 80%

Structure (SMILES): CCNC(=O)[C@H]1O[C@@H](n2cnc3c(NCc4ccccc4)ncnc32)[C@@H](O)C1O (stereo partly drawn) [N6-Benzyl-NECA]
- % of DHX [1, 6]: 36%

Structure (SMILES): CCN(c1nc(N)c(C(=O)NC(=N)N)nc1Cl)C(C)C [EIPA]
- % of DHX [1, 6]: 73%

Structure (SMILES): C=CCN1CCc2cccc3c2[C@H]1Cc1ccc(O)c(O)c1-3 [R(−)-N-Allyl-NPA]
- % of DHX [1, 6]: 56%

Structure (SMILES): NC1CCc2cc(O)c(O)cc2C1 (stereo not drawn) [6,7-ADTN]
- % of DHX [1, 6]: 131%

Structure (SMILES): Oc1ccc(C2CNCCc3c2cc(O)c(O)c3Cl)cc1 (stereo not drawn) [Fenoldopam]
- % of DHX [1, 6]: 31%

Structure (SMILES): CNC[C@H](O)c1ccc(O)c(O)c1 (racemic) [(±)-Epinephrine]
- % of DHX [1]: 81%

Structure (SMILES): C[C@H]1C[C@H]2[C@@H]3CCC4=CC(=O)C=C[C@]4(C)[C@@]3(F)[C@@H](O)C[C@]2(C)[C@@]1(O)C(=O)CO [Betamethasone]
- % of DHX [1, 6]: 101%

Structure (SMILES): CN1C2CCC1CC(OC(c1ccccc1)c1ccc(Cl)cc1)C2.Cl (stereo not drawn) [4′-Chloro-3-alpha-(diphenylmethoxy) tropane hydrochloride]
- % of the SCH23390 effect [2, 7]: 85%
- % Inhibition (of response to dopamine), Isdop2 screen ([4]; 10 μM compound, footnote 3 mM dopamine): 80%

Structure (SMILES): Nc1ncnc2c1ncn2[C@@H]1O[C@H](C(=O)NC2CC2)[C@@H](O)[C@H]1O [CPCA]
- % of DHX [1, 6]: 34%

Structure (SMILES): CN1CCN(CC/C=C2/c3ccccc3Sc3ccc(S(=O)(=O)N(C)C)cc32)CC1 [Thiothixene, (9Z)-N,N-dimethyl-9-[3-(4-methylpiperazin-1-yl)propylidene]-9H-thioxanthene-2-sulfonamide]
- % of the SCH23390 effect [2]: 86%
- % inhibition of DA activity (Aedes cell-based assay screen) ([2]; LOPAC1280 screen hits): 86%
- inhibition at 10 µM [4]: 87%

Structure (SMILES): Nn1nnc2ccccc21 [1-Aminobenzotriazole]
- % of DHX [1, 6]: 75%

Structure (SMILES): CC1(C)C(=O)N(CCN2CCC(C(=O)c3ccc(F)cc3)CC2)c2ccccc21.Cl [LY310762, 1-[2-[4-(4-fluorobenzoyl)piperidin-1-yl]ethyl]-3,3-dimethylindol-2-one]
- % of the SCH23390 effect [2]: 81%
- % inhibition of DA activity (Aedes cell-based assay screen) ([2]; LOPAC1280 screen hits): 81%
- inhibition at 10 µM [4]: 72%
- mortality at 400 µM ([5]; 0.5 h, read-out: percent mortality 0.5 hr, 400 uM, L3 larvae, value for this scoring time): 0%
- mortality at 400 µM ([5]; 1 h, read-out: percent mortality 1 hr, 400 uM, L3 larvae, per scoring time): 0%
- mortality at 400 µM ([5]; 2 h, read-out: percent mortality 2 hr, 400 uM, L3 larvae, per scoring time): 0%
- mortality at 400 µM ([5]; 3 h, read-out: percent mortality 3 hr, 400 uM, L3 larvae, per scoring time): 0%
- mortality at 400 µM ([5]; 4 h, read-out: percent mortality 4 hr, 400 uM, L3 larvae, per scoring time): 0%
- mortality at 400 µM ([5]; 24 h, read-out: Toxicity to Aedes aegypti larvae (mortality) 24 hours, 400 μM, L3 larvae, three independent experiments): 0%
- mortality at 400 µM ([5]; 24 h, read-out: percent mortality 24 hr, 400 uM, L3 larvae, per scoring time): 0%
- mortality at 400 µM ([5]; 48 h, read-out: Toxicity to Aedes aegypti larvae (mortality) 48 hours, 400 μM, L3 larvae, three independent experiments): 3%
- mortality at 400 µM ([5]; 48 h, read-out: percent mortality 48 hr, 400 uM, L3 larvae, per scoring time): 10%
- mortality at 400 µM ([5]; 72 h, read-out: Cumulative % Mortality (72 hrs), 400 uM, L3 larvae): 10%
- mortality at 400 µM ([5]; 72 h, read-out: Toxicity to Aedes aegypti larvae (mortality) 72 hours, 400 μM, L3 larvae, three independent experiments): 3%
- mortality at 400 µM ([5]; 72 h, read-out: percent mortality 72 hr, 400 uM, L3 larvae, per scoring time): 0%
- mortality at 400 µM ([5]; […], read-out: percent mortality […], 400 uM, L3 larvae, per scoring time): 0%

Structure (SMILES): Br.Cc1cccc(C2CN(C)CCc3c2cc(O)c(O)c3Cl)c1 (stereo not drawn) [SKF 83959]
- % Inhibition (of response to dopamine), Isdop2 screen [4]: 87%
- % of DHX [1, 6]: 30%

Structure (SMILES): CCC(=O)c1ccc2c(c1)N(CCCN(C)C)c1ccccc1S2 [Propionylpromazine, 1-[10-[3-(dimethylamino)propyl]phenothiazin-2-yl]propan-1-one]
- % of the SCH23390 effect [2, 7]: 85%
- % inhibition of DA activity (Aedes cell-based assay screen) ([2]; LOPAC1280 screen hits): 85%
- inhibition at 10 µM [4]: 94%

Structure (SMILES): CC[C@H]1CN2CCc3cc(OC)c(OC)cc3[C@@H]2C[C@@H]1C[C@H]1NCCc2cc(OC)c(OC)cc21 [Emetine dihydrochloride hydrate]
- % of the SCH23390 effect [2]: 86%
- inhibition at 10 µM [4]: 100%

Structure (SMILES): Oc1cc(O)cc(/C=C/c2ccc(O)c(O)c2)c1 [Piceatannol]
- % of the SCH23390 effect [2, 7]: 98%
- inhibition at 10 µM [4]: 100%

Structure (SMILES): CC1=C[C@@H]2c3cccc4[nH]cc(c34)C[C@H]2N(C)C1 [Agroclavine]
- % of DHX [1, 6]: 93%

Structure (SMILES): CN1CCc2ccccc2Cc2[nH]c3ccccc3c2CC1 [LE 300, 7-Methyl-6,7,8,9,14,15-hexahydro-5H-benz[d]indolo[2,3-g]azecine]
- % of the SCH23390 effect [2]: 99%
- % inhibition of DA activity (Aedes cell-based assay screen) ([2]; LOPAC1280 screen hits): 99%
- inhibition at 10 µM [4]: 100%

Structure (SMILES): CC(CN(C)C)CN1c2ccccc2CCc2ccccc21 (racemic) [Trimipramine, (±)-3-(10,11-dihydro-5H-dibenzo[b,f]azepin-5-yl)-N,N,2-trimethylpropan-1-]
- % of the SCH23390 effect [2, 7]: 87%
- % inhibition of DA activity (Aedes cell-based assay screen) ([2]; LOPAC1280 screen hits): 87%
- inhibition at 10 µM [4]: 86%

Structure (SMILES): C=CCN1CCc2c(cc(O)c(O)c2Cl)C(c2ccccc2)C1 (racemic) [(±)-Chloro-APB]
- % of DHX [1, 6]: 105%

Structure (SMILES): CCCN(CCC)CCc1ccc(O)c(O)c1 [Dipropyldopamine]
- % of DHX [1, 6]: 38%

Structure (SMILES): CC[C@@H](CO)NC(=O)[C@@H]1C=C2c3cccc4[nH]cc(c34)C[C@H]2N(C)C1 [Methylergonovine]
- % of DHX [1, 6]: 47%

Structure (SMILES): Br.Oc1ccc(C2CNCc3sccc32)cc1O (stereo not drawn) [SKF 89626]
- % of DHX [1, 6]: 101%

Structure (SMILES): CNCCC=C1c2ccccc2CCc2ccccc21 [Nortriptyline, 3-(10,11-dihydro-5H-dibenzo[a,d]cyclohepten-5-ylidene)-N-methyl-1-propanamine]
- % of the SCH23390 effect [2, 7]: 96%
- % inhibition of DA activity (Aedes cell-based assay screen) ([2]; LOPAC1280 screen hits): 96%
- IC50 ([3]; IC50 ± S.E.M. (nM), HTRF cAMP assay): 140 ± 50 nM
- inhibition at 10 µM [4]: 79%
- mortality at 400 µM [5, 9]: 43%
- mortality at 400 µM [5, 10]: 63%
- mortality at 400 µM [5, 11]: 73%

Structure (SMILES): C=C[C@@]1(C)CC(=O)[C@]2(O)[C@@]3(C)[C@@H](O)CCC(C)(C)[C@@H]3[C@H](O)[C@H](OC(C)=O)[C@@]2(C)O1 [Forskolin]
- % of DHX [1, 6]: 34%

Structure (SMILES): CCCCCCCC/C=C\CCCCCCCC(=O)NCCc1ccc(O)c(O)c1 [N-Oleoyldopamine]
- % of DHX [1, 6]: 38%

Structure (SMILES): CCCN1CCc2cccc3c2[C@H]1Cc1ccc(O)c(O)c1-3 [R(−)-Propyl-NPA]
- % of DHX [1, 6]: 68%

Structure (SMILES): CC(=O)[C@]1(O)Cc2c(O)c3c(c(O)c2[C@@H](O[C@H]2C[C@H](N)[C@H](O)[C@H](C)O2)C1)C(=O)c1ccccc1C3=O [Idarubicin]
- % of the SCH23390 effect [2]: 83%
- inhibition at 10 µM [4]: 97%

Structure (SMILES): CNCCCC1c2ccccc2C=Cc2ccccc21 [Protriptyline, 3-(5H-dibenzo[a,d][7]annulen-5-yl)-N-methylpropan-1-amine]
- % inhibition of DA activity (Aedes cell-based assay screen) [2]: 82%
- % of the SCH23390 effect [2]: 82%
- IC50 ([3]; read-out: IC50 ± S.E.M. (nM), HTRF cAMP assay): 600 ± 250 nM
- inhibition at 10 µM [4]: 75%
- mortality at 400 µM [5, 9]: 37%
- mortality at 400 µM [5, 10]: 43%
- mortality at 400 µM [5, 11]: 53%

Structure (SMILES): OCCN1CCN(CCCN2c3ccccc3Sc3ccc(Cl)cc32)CC1 [Perphenazine, 2-[4-[3-(2-chloro-10H-phenothiazin-10-yl)propyl]piperazin-1-yl]ethanol]
- % of the SCH23390 effect [2, 7]: 95%
- % inhibition of DA activity (Aedes cell-based assay screen) ([2]; LOPAC1280 screen hits): 95%
- IC50 ([3]; Avg IC50 (μM), in vitro Concentration Response Curve assay, n = 2, relative to control antagonist Amitriptyline): 101 nM
- inhibition at 10 µM [4]: 76%
